# According to PubChem BioAssay (NCI):
#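 Five concentrations, 48 hours, 96-well plates. TGI marks complete inhibition of growth.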
# Key:
# Assay in all cases: DTP human tumour cell line panel, 48 h
# SF-539 CNS = system: SF-539 CNS
# UACC-257 melanoma = system: UACC-257 melanoma
# OVCAR-4 ovarian = system: OVCAR-4 ovarian
# NCI-H460 lung = system: NCI-H460 lung
# NCI-H23 lung = system: NCI-H23 lung
# U251 CNS = system: U251 CNS
# TK-10 renal = system: TK-10 renal
# M14 melanoma = system: M14 melanoma
# NCI/ADR-RES ovarian = system: NCI/ADR-RES ovarian
# MOLT-4 leukemia = system: MOLT-4 leukemia
# HS 578T breast = system: HS 578T breast
# CAKI-1 renal = system: CAKI-1 renal
# CCRF-CEM leukemia = system: CCRF-CEM leukemia
# SNB-19 CNS = system: SNB-19 CNS
# MALME-3M melanoma = system: MALME-3M melanoma
# SK-MEL-2 melanoma = system: SK-MEL-2 melanoma
# BT-549 breast = system: BT-549 breast
# OVCAR-3 ovarian = system: OVCAR-3 ovarian
# EKVX NSCLC = system: EKVX NSCLC
# K-562 leukemia = system: K-562 leukemia
# PC-3 prostate = system: PC-3 prostate
# A549 NSCLC = system: A549 NSCLC
# SK-MEL-28 melanoma = system: SK-MEL-28 melanoma
# COLO 205 colon = system: COLO 205 colon
# NCI-H226 lung = system: NCI-H226 lung
# HT29 colon = system: HT29 colon
# UO-31 renal = system: UO-31 renal
# A498 renal = system: A498 renal
# IGROV1 ovarian = system: IGROV1 ovarian
# MDA-N = system: MDA-N
# SK-MEL-5 melanoma = system: SK-MEL-5 melanoma
# HCT-116 colon = system: HCT-116 colon
# OVCAR-5 ovarian = system: OVCAR-5 ovarian
# LOX IMVI melanoma = system: LOX IMVI melanoma
# 786-0 renal = system: 786-0 renal
# T-47D breast = system: T-47D breast
# MDA-MB-231 breast = system: MDA-MB-231 breast
# HL-60(TB) leukemia = system: HL-60(TB) leukemia
# SF-295 CNS = system: SF-295 CNS
# HCC-2998 colon = system: HCC-2998 colon
# HCT-15 colon = system: HCT-15 colon
# HOP-92 NSCLC = system: HOP-92 NSCLC
# RPMI-8226 leukemia = system: RPMI-8226 leukemia
# KM12 colon = system: KM12 colon
# SW-620 colon = system: SW-620 colon
# RXF 393 renal = system: RXF 393 renal
# MCF7 breast = system: MCF7 breast
# SF-268 CNS = system: SF-268 CNS
# OVCAR-8 ovarian = system: OVCAR-8 ovarian
# DU-145 prostate = system: DU-145 prostate
# ACHN renal = system: ACHN renal
# NCI-H522 lung = system: NCI-H522 lung
# SNB-75 CNS = system: SNB-75 CNS
# MDA-MB-435 = system: MDA-MB-435
# UACC-62 melanoma = system: UACC-62 melanoma
# SN12C renal = system: SN12C renal
# SK-OV-3 ovarian = system: SK-OV-3 ovarian
# SR leukemia = system: SR leukemia
smiles,measurement,setting,value
O=S1SC(=S)C2C=CC=NC21 (stereo not drawn),TGI,SF-539 CNS,33.3 µM
same,TGI,UACC-257 melanoma,29 µM
same,TGI,OVCAR-4 ovarian,> 100 µM
same,TGI,NCI-H460 lung,37.8 µM
same,TGI,NCI-H23 lung,43.1 µM
same,TGI,U251 CNS,35.1 µM
same,TGI,TK-10 renal,32.2 µM
same,TGI,M14 melanoma,29.6 µM
same,TGI,NCI/ADR-RES ovarian,67.5 µM
same,TGI,MOLT-4 leukemia,64.9 µM
same,TGI,HS 578T breast,61.4 µM
same,TGI,CAKI-1 renal,> 100 µM
same,TGI,CCRF-CEM leukemia,> 100 µM
same,TGI,SNB-19 CNS,87.9 µM
same,TGI,MALME-3M melanoma,36.3 µM
same,TGI,SK-MEL-2 melanoma,36.6 µM
same,TGI,BT-549 breast,33.9 µM
same,TGI,OVCAR-3 ovarian,56.2 µM
same,TGI,EKVX NSCLC,26.1 µM
same,TGI,K-562 leukemia,> 100 µM
same,TGI,PC-3 prostate,30.5 µM
same,TGI,A549 NSCLC,60.5 µM
same,TGI,SK-MEL-28 melanoma,> 100 µM
same,TGI,COLO 205 colon,40.3 µM
same,TGI,NCI-H226 lung,56.4 µM
same,TGI,HT29 colon,30.8 µM
same,TGI,UO-31 renal,28.4 µM
same,TGI,A498 renal,66.1 µM
same,TGI,IGROV1 ovarian,49.6 µM
same,TGI,MDA-N,27.8 µM
same,TGI,SK-MEL-5 melanoma,53.2 µM
same,TGI,HCT-116 colon,26.6 µM
same,TGI,OVCAR-5 ovarian,28.6 µM
same,TGI,LOX IMVI melanoma,32.7 µM
same,TGI,786-0 renal,27.6 µM
same,TGI,T-47D breast,58.9 µM
same,TGI,MDA-MB-231 breast,42.3 µM
same,TGI,HL-60(TB) leukemia,> 100 µM
same,TGI,SF-295 CNS,62.3 µM
same,TGI,HCC-2998 colon,28.8 µM
same,TGI,HCT-15 colon,49.2 µM
same,TGI,HOP-92 NSCLC,37.6 µM
same,TGI,RPMI-8226 leukemia,> 100 µM
same,TGI,KM12 colon,> 100 µM
same,TGI,SW-620 colon,> 100 µM
same,TGI,RXF 393 renal,32.5 µM
same,TGI,MCF7 breast,38.4 µM
same,TGI,SF-268 CNS,44.6 µM
same,TGI,OVCAR-8 ovarian,79 µM
same,TGI,DU-145 prostate,31.4 µM
same,TGI,ACHN renal,32.4 µM
same,TGI,NCI-H522 lung,53 µM
same,TGI,SNB-75 CNS,34.9 µM
same,TGI,MDA-MB-435,> 100 µM
same,TGI,UACC-62 melanoma,40.2 µM
same,TGI,SN12C renal,28.8 µM
same,TGI,SK-OV-3 ovarian,> 100 µM
same,TGI,SR leukemia,77.7 µM
C=C1N(S(=O)(=O)c2ccc(C)cc2)C(=O)OCC12CCCC2,TGI,SF-539 CNS,> 100 µM
same,TGI,UACC-257 melanoma,> 100 µM
same,TGI,OVCAR-4 ovarian,> 100 µM
same,TGI,NCI-H460 lung,> 100 µM
same,TGI,NCI-H23 lung,> 100 µM
same,TGI,U251 CNS,> 100 µM
same,TGI,TK-10 renal,> 100 µM
same,TGI,M14 melanoma,> 100 µM
same,TGI,NCI/ADR-RES ovarian,> 100 µM
same,TGI,MOLT-4 leukemia,> 100 µM
same,TGI,HS 578T breast,> 100 µM
same,TGI,CAKI-1 renal,> 100 µM
same,TGI,CCRF-CEM leukemia,> 100 µM
same,TGI,SNB-19 CNS,> 100 µM
same,TGI,MALME-3M melanoma,> 100 µM
same,TGI,BT-549 breast,> 100 µM
same,TGI,OVCAR-3 ovarian,> 100 µM
same,TGI,EKVX NSCLC,> 100 µM
same,TGI,K-562 leukemia,> 100 µM
same,TGI,PC-3 prostate,> 100 µM
same,TGI,A549 NSCLC,> 100 µM
same,TGI,SK-MEL-28 melanoma,> 100 µM
same,TGI,COLO 205 colon,> 100 µM
same,TGI,NCI-H226 lung,> 100 µM
same,TGI,HT29 colon,> 100 µM
same,TGI,UO-31 renal,> 100 µM
same,TGI,A498 renal,> 100 µM
same,TGI,IGROV1 ovarian,> 100 µM
same,TGI,MDA-N,> 100 µM
same,TGI,SK-MEL-5 melanoma,94.6 µM
same,TGI,HCT-116 colon,> 100 µM
same,TGI,OVCAR-5 ovarian,> 100 µM
same,TGI,LOX IMVI melanoma,> 100 µM
same,TGI,786-0 renal,> 100 µM
same,TGI,T-47D breast,> 100 µM
same,TGI,MDA-MB-231 breast,> 100 µM
same,TGI,HL-60(TB) leukemia,> 100 µM
same,TGI,SF-295 CNS,> 100 µM
same,TGI,HCC-2998 colon,> 100 µM
same,TGI,HCT-15 colon,> 100 µM
same,TGI,HOP-92 NSCLC,> 100 µM
same,TGI,RPMI-8226 leukemia,> 100 µM
same,TGI,KM12 colon,> 100 µM
same,TGI,SW-620 colon,> 100 µM
same,TGI,RXF 393 renal,> 100 µM
same,TGI,MCF7 breast,> 100 µM
same,TGI,OVCAR-8 ovarian,> 100 µM
same,TGI,DU-145 prostate,> 100 µM
same,TGI,ACHN renal,> 100 µM
same,TGI,NCI-H522 lung,> 100 µM
same,TGI,SNB-75 CNS,62.6 µM
same,TGI,MDA-MB-435,> 100 µM
same,TGI,UACC-62 melanoma,> 100 µM
same,TGI,SK-OV-3 ovarian,> 100 µM
same,TGI,SR leukemia,> 100 µM
